Test results from patent publication US7517881B2, “Triazine derivatives, their preparation and therapeutic application thereof” (Aventis Pharma S.A., priority 2005, dated 2009).
pKi: −log10 of the molar value.

Biological target: T1, nicotinic receptors containing the α7 subunit (Rattus norvegicus, UniProt Q05941)
T1 construct: displace the [^3H]-MLA bond on the rat hippocampus membranes; from tissue; host or cells: hippocampus of female Sprague-Dawley rats (membrane preparation)
Test: binding to nicotinic receptors containing the α7 subunit, competition versus [3H]-methyllycaconitine on rat hippocampus membranes
Conditions: apparent affinity constant by Cheng and Prusoff, displacement of 5 nM [3H]-MLA, 2 hours at about 20° C.
Description: The compounds of the invention were tested for their ability to bind the nicotinic receptors containing the α7 subunit using a test of binding to preparations of rat brain membranes according to the methods described hereunder:
Frozen specimens of hippocampus from the brain of female Sprague-Dawley rats were stored at −20° C. until used. The hippocampi from 10 rats were combined and homogenized using a pulverizer of the Polytron type in 10 volumes of an ice-cooled buffer with the following composition: KCl (11 mM); KH2PO4 (6 mM); NaCl (137 mM); Na2HPO4 (8 mM); HEPES (20 mM); iodoacetamide (5 mM); EDTA (1.5 mM); PMSF (0.1 mM). The pH was adjusted to 7.4 with NaOH. […]
The binding of the compounds of the invention for receptors containing the α7 subunit was measured by competition versus [^3H]-methyllycaconitine ([^3H]-MLA), a radiolabeled tracer which recognizes the α7 receptors (Davies et al., Neuropharmacology 1999, 38, 679-690) according to conventional methods adapted to the format of 96-well plates. The ability of the compounds of the invention to displace the [^3H]-MLA bond on the rat hippocampus membranes was determined in duplicate after incubation for 2 hours at a temperature close to 20° C. […] The non-specific binding was determined in specific wells containing 10 μM of non-radiolabeled MLA. […]

T1 sequence (Q05941 23-502): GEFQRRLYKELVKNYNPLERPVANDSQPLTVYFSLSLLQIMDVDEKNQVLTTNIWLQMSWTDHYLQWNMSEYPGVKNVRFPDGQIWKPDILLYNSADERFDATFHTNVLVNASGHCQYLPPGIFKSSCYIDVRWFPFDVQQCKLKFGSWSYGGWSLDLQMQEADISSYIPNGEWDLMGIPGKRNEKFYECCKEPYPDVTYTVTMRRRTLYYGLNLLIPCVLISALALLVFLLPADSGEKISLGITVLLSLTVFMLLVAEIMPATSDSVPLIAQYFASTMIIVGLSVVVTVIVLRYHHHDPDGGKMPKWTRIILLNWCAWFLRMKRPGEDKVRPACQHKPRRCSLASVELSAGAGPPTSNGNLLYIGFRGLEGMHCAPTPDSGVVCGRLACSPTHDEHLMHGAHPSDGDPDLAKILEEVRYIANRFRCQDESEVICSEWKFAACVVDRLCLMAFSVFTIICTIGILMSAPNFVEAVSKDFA

| Structure (SMILES) | pKi |
| --- | --- |
| CCN(CC)CCCNc1nnc(-c2csc3ccccc23)c(=O)[nH]1 [Compound No. 12, 6-(benzothiophen-3-yl)-3-(3-diethylaminopropylamino)-4H-1,2,4-triazin-5-one] | 6.02 |
| CCN(CC)CCCNc1nnc(-c2cn(-c3ccccc3)c3ccccc23)c(=O)[nH]1 [Compound No. 11, 6-(1-phenyl-indol-3-yl)-3-(3-diethylaminopropylamino)-4H-1,2,4-triazin-5-one] | 6.13 |
